Assays:
[1] = system: NMDA receptor; assay: [3H]MK-801 displacement radioligand binding, rat forebrain membranes; conditions: for IC50: displacement of [3H]MK-801, rat forebrain membranes, read-out: NMDA BINDING IC50
Protocol: The identification of possible recognition sites for PRS-211 analogs was carried out by measuring the ability of these PRS-211 analogs to inhibit the binding of MK-801 to rat forebrain membranes.
Brains were removed from Sprague-Dawley rats no more than 5 min after decapitation. Membrane preparations were isolated according to a procedure described previously (Eshhar et al., Brain Res. 476:57, 1989). Prior to radioligand binding measurements, endogenous glutamate present in membranes was removed from the preparation by subjecting the membranes to 3–4 successive washings in 10 mM Tris HCl pH 7.2, performed at 4° C.
The specific binding of the new analogs to NMDA receptors was determined by their ability to displace [^3H]MK-801 from NMDA receptor in rat forebrain preparations. Specifically, rat-forebrain membranes (0.1 mg) were incubated for 2 hours at room temperature with 10 nM of tritiated MK-801 and with the PRS-211 compounds at 3 doses each. Non-specific binding was determined by the use of 0.1 mM MK-801. Following the incubation, bound radioligand was separated from unbound by filtration through GF/B filters. The filters were counted in a β-counter and log of analog concentrations versus % of [^3H]MK-801 specific binding was plotted. The IC50 was calculated from this plot.
Binding of [^3H]MK-801 to membranes was carried out in the presence of 30 μM glycine and 10 μM L-glutamate. Membranes (250 μg protein) were resuspended in 50 mM tris-acetate pH 7.4 buffer and incubated with 10 nM [^3H]MK-801, either alone or in the presence of PRS-211 compounds at 0.1–100 μM concentrations for three hours at room temperature (RT). Reaction buffers used in the different radioligand binding studies contained 10% of an ethanol/Emulphor 620/deionized water mixture. The ratio (by volume) of the respective components in the mixture was 20/3/57. This mixture is required for solubilizing PRS-211 compounds at concentrations above 30 μM. Reaction volume was 1 ml. Non-specific [^3H]MK-801 binding was determined in the presence of 100 μM unlabeled MK-801.
Concentration dependence of certain PRS-211 analogs on inhibition of [^3H]MK-801 binding is illustrated in FIG. 1.

[2] = system: TNFα; assay: Inhibition of TNFα in LPS-activated macrophage cell cultures (ELISA); assay type: cell-based
Protocol: Specific aspects of the inflammatory response cascade are mediated by the cytokine TNFα. Inhibition of TNFα production and/or inhibition of TNFα release by the new analogs are assayed in macrophage cell cultures activated with LPS. This serves as another indication of the general anti-inflammatory potential of the novel compounds.
The method for macrophage cell culture growth is identical to the one described in PGE2 assay. Aliquots of the supernatants collected following stimulation with LPS were quantitated for TNFα by enzyme linked immunosorbent assay (ELISA) using HRP conjugated to anti-TNFα antibodies and […] for the colorimetric reaction. The peroxidase catalyzed color reaction was stopped by acidification and the absorbance at 450 nm is measured. The absorbance at this wavelength is proportional to the concentration of TNFα in the sample determined from a standard curve plotting the concentrations of TNFα standards versus their absorbance.

[3] = system: T1, nitric oxide synthase (NOS); assay: Inhibition of nitric oxide synthase, fluorimetric nitrite assay in LPS-stimulated macrophage supernatants; assay type: cell-based; conditions: macrophage cell cultures
T1 construct: endogenous in cells
Protocol: As one aspect of the anti-oxidative potential of the novel analogs they were tested for their ability to inhibit the enzyme nitric oxide synthase (NOS). This assay can also serve as another indication of the anti-inflammatory cascade, as well as the anti-oxidative mechanisms.
The final products of NOS are Nitrite (NO2) and Nitrate (NO3). The in vitro fluorimetric assay provides an accurate method for the measurement of the Nitrite, which is the majority of NO products. The principle of the fluorimetric assay is based on the addition of DAN (2,3-diaminonaphthalene) to the aliquots of the supernatants collected from macrophage cell cultures incubated with the new analogs and stimulated with LPS. Following, NaOH was added to convert Nitrite to a fluorescent compound 1(H)-naphthtriazole. The fluorescence was measured immediately in a fluorimeter using excitation wavelength of 365 nm and an emission wavelength of 450 nm.

[4] = system: cannabimimetic activity; conditions: in vivo; cited from earlier work

T1 sequence (P35228 whole entry): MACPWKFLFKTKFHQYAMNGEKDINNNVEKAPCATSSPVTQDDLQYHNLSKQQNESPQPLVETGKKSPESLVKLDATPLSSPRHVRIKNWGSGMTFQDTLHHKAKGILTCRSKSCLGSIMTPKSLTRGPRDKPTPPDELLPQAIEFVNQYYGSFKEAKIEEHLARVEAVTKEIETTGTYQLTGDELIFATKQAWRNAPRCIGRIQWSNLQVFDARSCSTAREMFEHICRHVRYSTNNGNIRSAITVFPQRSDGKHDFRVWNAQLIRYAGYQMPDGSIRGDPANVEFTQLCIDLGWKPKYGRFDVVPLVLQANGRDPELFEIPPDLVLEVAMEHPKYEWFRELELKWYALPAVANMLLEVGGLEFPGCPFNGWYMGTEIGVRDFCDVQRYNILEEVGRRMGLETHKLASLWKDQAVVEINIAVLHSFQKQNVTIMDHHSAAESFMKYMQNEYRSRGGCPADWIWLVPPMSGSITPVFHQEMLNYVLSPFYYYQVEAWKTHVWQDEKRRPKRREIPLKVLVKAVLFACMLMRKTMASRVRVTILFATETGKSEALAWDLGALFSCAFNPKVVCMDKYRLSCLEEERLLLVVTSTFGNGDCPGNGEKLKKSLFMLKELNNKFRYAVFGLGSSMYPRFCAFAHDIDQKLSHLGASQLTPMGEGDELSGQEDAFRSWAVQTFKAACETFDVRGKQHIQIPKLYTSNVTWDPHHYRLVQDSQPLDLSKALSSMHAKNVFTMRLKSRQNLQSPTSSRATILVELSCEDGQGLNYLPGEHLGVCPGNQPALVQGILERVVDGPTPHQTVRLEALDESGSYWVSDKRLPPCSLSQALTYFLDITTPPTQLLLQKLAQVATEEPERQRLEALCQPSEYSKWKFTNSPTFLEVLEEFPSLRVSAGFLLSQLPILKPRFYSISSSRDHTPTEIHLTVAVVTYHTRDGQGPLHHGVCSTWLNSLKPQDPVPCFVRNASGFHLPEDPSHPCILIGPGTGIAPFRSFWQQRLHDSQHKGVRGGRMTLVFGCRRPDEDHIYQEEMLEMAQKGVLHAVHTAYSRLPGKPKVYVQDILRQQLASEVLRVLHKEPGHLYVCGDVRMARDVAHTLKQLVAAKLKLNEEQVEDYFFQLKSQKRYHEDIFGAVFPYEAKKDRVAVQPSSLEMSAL

CCCCCCC(C)(C)c1cc(O)c2c(c1)OC(C)(C)[C@H]1CC=C(CN3CCC(N4CCCC4)CC3)C[C@H]21 [211,253-000]
NMDA receptor binding / affinity (in words) [1]: do not exhibit substantial NMDA receptor binding
IC50 [1]: > 100 µM
inhibition at 10 µM [2]: 0%
inhibition at 10 µM [3]: 27%

CCCCCCC(C)(C)c1cc(O)c2c(c1)OC(C)(C)[C@H]1CC=C(CN(Cc3ccccc3)c3ccccc3)C[C@H]21 [211,255-000]
NMDA receptor binding / affinity (in words) [1]: do not exhibit substantial NMDA receptor binding
IC50 [1]: > 100 µM
inhibition at 10 µM [2]: 0%
inhibition at 10 µM [3]: 7%

CCCCCCC(C)(C)c1cc(O)c2c(c1)OC(C)(C)[C@@H]1CC=C(CO)C[C@@H]21 [HU-210]
cannabimimetic activity relative to Δ-1-tetrahydrocannabinol [4]: ~100 times
